Test results: patent publication US20240263068A1, “AIE Fluorescent Probe Composition, Method and Device for Measuring CMC of Surfactant Solution, and Method and Device for CMC Determination” (Moon House (China) Co., Ltd., priority 2022, published 2024)
Where two headings read alike, the source gives them in different places.

Legend:
[1] = Fluorescence emission peaks excited by 365 nm ultraviolet light; assay type: physicochemical
Excerpt: That is, the wavelength range of 400-550 nm within which the emission peaks of the fluorescent whitening agent CBS occur is avoided. In this way, the interference of the fluorescent whitening agent with the CMC determination result may be avoided.

[2] = Excerpt: It is generally believed that the type or polarity of a solvent almost has no influence on the fluorescence absorption or emission spectrum of the HPS.
[3] = cited from earlier work

SMILES: O=S(=O)([O-])c1ccccc1C=Cc1ccc(-c2ccc(C=Cc3ccccc3S(=O)(=O)[O-])cc2)cc1.[Na+].[Na+] [CBS]
- Wavelength range of emission peaks ([1]; fluorescent whitening agent in detergent): 400-550 nm

SMILES: C[S+](C)[O-] [DMSO]
- Solubility of HPS to Solvent [2]: soluble

SMILES: c1ccc(C2=C(c3ccccc3)[Si](c3ccccc3)(c3ccccc3)C(c3ccccc3)=C2c2ccccc2)cc1 [HPS, 1,1,2,3,4,5-hexaphenylsilole]
- Solubility of HPS ([3]; alcohols such as methanol): slightly soluble
- Solubility of HPS ([3]; good solvents such as acetonitrile, tetrahydrofuran and chloroform): highly soluble
- Solubility of HPS ([3]; water): completely insoluble
- Fluorescence emission peak, sharp with high intensity ([1]; excited by 365 nm): 350-370 nm
- Fluorescence emission peak, wide and short with relatively low intensity ([1]; excited by 365 nm): 720-740 nm
- Solubility of HPS powder in water [2]: insoluble in water

SMILES: CN1CCCC1=O [NMP]
- Solubility of HPS to Solvent [2]: soluble

SMILES: c1ccc2ncccc2c1 [Quinoline]
- Solubility of HPS to Solvent [2]: soluble

SMILES: CCCCCO [n-pentanol]
- Solubility of HPS to Solvent [2]: slightly soluble
